How the values were obtained:
[1] = target: T1, KRAS Wild Type (Homo sapiens (Human), UniProt P01116); assay: SPR binding affinity and kinetics, GDP-loaded KRAS Wild Type; details: GDP loaded protein, geomean
Description: (§1) No additional regeneration was used.
(§2) Compound dissociation was monitored for at least 3600 seconds. […] No additional regeneration was used.
(§3) The adequateness of the fit was judged by c2 values and the randomness of residue distribution.

[2] = target: T2, KRAS G12D (Homo sapiens (Human), UniProt P01116, G12D); assay: SPR binding affinity and kinetics, GDP-loaded KRAS G12D; details: GDP loaded protein, geomean
T2 sequence (P01116 other isoform, or with tags, fused parts or gaps G12D): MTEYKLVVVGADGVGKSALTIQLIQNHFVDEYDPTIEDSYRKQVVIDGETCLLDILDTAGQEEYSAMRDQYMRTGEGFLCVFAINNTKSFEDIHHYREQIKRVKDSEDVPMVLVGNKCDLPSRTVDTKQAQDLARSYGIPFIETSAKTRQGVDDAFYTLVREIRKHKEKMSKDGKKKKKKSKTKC
Description: as §1, §2, §3

[3] = target: T3, KRAS G12C (Homo sapiens (Human), UniProt P01116, G12C); assay: SPR binding affinity and kinetics, GDP-loaded KRAS G12C; details: GDP loaded protein, geomean
T3 sequence (P01116 other isoform, or with tags, fused parts or gaps G12C): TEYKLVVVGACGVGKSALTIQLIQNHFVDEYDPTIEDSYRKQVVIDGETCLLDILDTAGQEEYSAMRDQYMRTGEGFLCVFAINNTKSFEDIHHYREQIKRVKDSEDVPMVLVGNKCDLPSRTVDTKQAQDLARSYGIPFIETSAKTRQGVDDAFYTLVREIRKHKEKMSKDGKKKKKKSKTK
Description: as §1, §2, §3

[4] = target: T4, KRAS G12V (Homo sapiens (Human), UniProt P01116, G12V); assay: SPR binding affinity and kinetics, GDP-loaded KRAS G12V; details: GDP loaded protein, geomean
T4 sequence (P01116 other isoform, or with tags, fused parts or gaps G12V): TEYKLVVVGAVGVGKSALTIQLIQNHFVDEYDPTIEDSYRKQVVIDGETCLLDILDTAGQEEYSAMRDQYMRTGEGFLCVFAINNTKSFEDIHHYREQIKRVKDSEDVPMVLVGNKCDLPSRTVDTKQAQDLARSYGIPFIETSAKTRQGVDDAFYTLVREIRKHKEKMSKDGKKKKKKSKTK
Description: as §1, §2, §3

[5] = target: T1, KRAS Wild Type; assay: SPR binding affinity and kinetics, GTPγS-loaded KRAS Wild Type; details: GTPγS loaded protein, geomean
How it was run: (§4)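 Surface plasmon resonance tracked compound dissociation for at least 3600 seconds, with no additional regeneration between cycles. Fit adequacy was judged from c2 values and randomness of the residue distribution.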

[6] = target: T2, KRAS G12D; assay: SPR binding affinity and kinetics, GTPγS-loaded KRAS G12D; details: GTPγS loaded protein, geomean
How it was run: as §4

[7] = target: T3, KRAS G12C; assay: SPR binding affinity and kinetics, GTPγS-loaded KRAS G12C; details: GTPγS loaded protein, geomean
How it was run: as §4

[8] = target: T4, KRAS G12V; assay: SPR binding affinity and kinetics, GTPγS-loaded KRAS G12V; details: GTPγS loaded protein, geomean
How it was run: as §4

[9] = test system: H358 (non-small cell lung cancer cell line); assay: KRAS Cell Titer Glo (CTG) cell proliferation assay, H358; format: cell-based; details: Homo sapiens, NCI-H358, 168 h; H358 cells, 7-day CTG, geomean IC50
How it was run: (§5)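 Compounds pre-dispensed in 0.1% DMSO before seeding H358 (300 cells/well), SW620 (750) or PANC08.13 (600); 7-day exposure at 37 °C, 5% CO2. Viability by CellTiter-Glo luminescence after 15 min at room temperature. Percent effect normalised to DMSO (0%) and 1 uM trametinib (100%); geomean IC50.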

[10] = test system: SW620 (colorectal cancer cell line); assay: KRAS Cell Titer Glo (CTG) cell proliferation assay, SW620; format: cell-based; details: Homo sapiens, SW-620, 168 h; SW620 cells, 7-day CTG, geomean IC50
How it was run: as §5

[11] = test system: PANC08.13 (pancreatic cancer cell line); assay: KRAS Cell Titer Glo (CTG) cell proliferation assay, PANC08.13; format: cell-based; details: Homo sapiens, PANC-08-13, 168 h; PANC08.13 cells, 7-day CTG, geomean IC50
How it was run: as §5

[12] = target: HRAS Wild Type (Homo sapiens (Human), UniProt P01112); assay: SPR binding affinity and kinetics, GTPγS-loaded HRAS Wild Type; details: GTPγS loaded protein, geomean
Chain of HRAS Wild Type (P01112 2-184): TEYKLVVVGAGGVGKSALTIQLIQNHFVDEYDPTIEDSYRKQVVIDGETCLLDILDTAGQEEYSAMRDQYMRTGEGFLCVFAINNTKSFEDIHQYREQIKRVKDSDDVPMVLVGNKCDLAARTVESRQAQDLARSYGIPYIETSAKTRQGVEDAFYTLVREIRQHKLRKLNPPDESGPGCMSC
Description: as §1, §2, §3

[13] = target: NRAS Wild Type (Homo sapiens (Human), UniProt P01111); assay: SPR binding affinity and kinetics, GTPγS-loaded NRAS Wild Type; details: GTPγS loaded protein, geomean
Chain of NRAS Wild Type (P01111 2-185): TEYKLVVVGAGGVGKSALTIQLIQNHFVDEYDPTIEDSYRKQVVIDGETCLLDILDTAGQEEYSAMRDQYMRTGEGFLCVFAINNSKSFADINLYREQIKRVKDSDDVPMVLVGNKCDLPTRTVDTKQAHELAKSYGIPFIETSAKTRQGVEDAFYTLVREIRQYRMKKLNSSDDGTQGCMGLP
Description: as §1, §2, §3

T1 sequence (P01116 other isoform, or with tags, fused parts or gaps): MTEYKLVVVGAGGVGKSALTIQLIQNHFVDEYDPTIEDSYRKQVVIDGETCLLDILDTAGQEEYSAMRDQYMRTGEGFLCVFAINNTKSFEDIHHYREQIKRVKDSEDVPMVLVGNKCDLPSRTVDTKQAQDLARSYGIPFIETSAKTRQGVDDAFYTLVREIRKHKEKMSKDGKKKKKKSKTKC

SMILES	Kd [1]	Kd [2]	Kd [3]	Kd [4]	Kd [5]	Kd [6]	Kd [7]	Kd [8]	IC50 [9]	IC50 [10]	IC50 [11]	Kd [12]	Kd [13]
C=C1CN2CCC[C@@]2(COc2nc3c4c(nc(-c5c(Cl)ccc6[nH]ncc56)c(F)c4n2)OC[C@@H]2COCCCN32)C1 [Example 6, (8aS)-5-(5-chloro-1H-indazol-4-yl)-4-fluoro-2-{[(7aS)-2-methylidenetetrahydro-1H-pyrrolizin-7a(5H)-yl]methoxy}-8a,9,12,13-tetrahydro-8H,11H-7,10-dioxa-1,3,6,13a-tetraazanaphtho[1,8-ab]heptalene]	2.51 nM	0.956 nM	0.894 nM	1.23 nM	546 nM	467 nM	635 nM	639 nM	847 nM	1320 nM	404 nM		
C=C1CN2CCC[C@@]2(COc2nc3c4c(nc(-c5c(C(F)(F)F)c(Cl)cc6[nH]ncc56)c(F)c4n2)OC[C@@H]2COCCCN32)C1 [Example 13, (8aS)-5-[6-chloro-5-(trifluoromethyl)-1H-indazol-4-yl]-4-fluoro-2-{[(7aS)-2-methylidenetetrahydro-1H-pyrrolizin-7a(5H)-yl]methoxy}-8a,9,12,13-tetrahydro-8H,11H-7,10-dioxa-1,3,6,13a-tetraazanaphtho[1,8-ab]heptalene]	< 0.001 nM	0.106 nM	0.017 nM	0.072 nM	5 nM	1 nM	4 nM	3 nM	26 nM	70 nM	7 nM		
C=C1CN2CCC[C@@]2(COc2nc3c4c(nc(-c5c(C)ccc6[nH]ncc56)c(F)c4n2)OC[C@@H]2COCCCN32)C1 [Example 5, (8aS)-4-fluoro-2-{[(7aS)-2-methylidenetetrahydro-1H-pyrrolizin-7a(5H)-yl]methoxy}-5-(5-methyl-1H-indazol-4-yl)-8a,9,12,13-tetrahydro-8H,11H-7,10-dioxa-1,3,6,13a-tetraazanaphtho[1,8-ab]heptalene]	5.42 nM	2.2 nM	1.95 nM	2.76 nM	1450 nM	1240 nM	1560 nM	1430 nM	2320 nM	2680 nM	1040 nM		
C=C1CN2CCC[C@@]2(COc2nc3c4c(nc(-c5c(Cl)c(Cl)cc6[nH]ncc56)c(F)c4n2)OC[C@@H]2COCCCN32)C1 [Example 11, (8aS)-5-(5,6-dichloro-1H-indazol-4-yl)-4-fluoro-2-{[(7aS)-2-methylidenetetrahydro-1H-pyrrolizin-7a(5H)-yl]methoxy}-8a,9,12,13-tetrahydro-8H,11H-7,10-dioxa-1,3,6,13a-tetraazanaphtho[1,8-ab]heptalene]	0.091 nM	0.024 nM	0.051 nM	0.067 nM	40 nM	19 nM	39 nM	29 nM	136 nM	315 nM	21 nM		
Fc1c(-c2cccc3[nH]ncc23)nc2c3c(nc(OC[C@@]45CCCN4C[C@H](F)C5)nc13)N1CCCOC[C@H]1CO2 [Example 3, (8aS)-4-fluoro-2-{[(2R,7aS)-2-fluorotetrahydro-1H-pyrrolizin-7a(5H)-yl]methoxy}-5-(1H-indazol-4-yl)-8a,9,12,13-tetrahydro-8H,11H-7,10-dioxa-1,3,6,13a-tetraazanaphtho[1,8-ab]heptalene]	> 10000 nM	> 10000 nM	> 10000 nM	> 10000 nM	> 1000 nM	> 1000 nM	> 1000 nM	> 1000 nM	> 9990 nM	> 9990 nM	> 9990 nM		
C=C1CN2CCC[C@@]2(COc2nc3c4c(nc(-c5c(C6CC6)c(Cl)cc6[nH]ncc56)c(F)c4n2)OC[C@@H]2CC[C@H](O)CN32)C1 [Example 23, (8aS,11S)-5-(6-chloro-5-cyclopropyl-1H-indazol-4-yl)-4-fluoro-2-{[(7aS)-2-methylidenetetrahydro-1H-pyrrolizin-7a(5H)-yl]methoxy}-8,8a,9,10,11,12-hexahydro-7-oxa-1,3,6,12a-tetraazabenzo[4,5]cyclohepta[1,2,3-de]naphthalen-11-ol]					3 nM	3 nM	3 nM	2 nM	102 nM	156 nM	3 nM	> 10000 nM	> 10000 nM
C[C@@H]1CCCc2cc3[nH]ncc3c(-c3nc4c5c(nc(OC[C@@]67CCCN6CC(=C6COC6)C7)nc5c3F)N3CCCOC[C@H]3CO4)c21 [Example 47, (8aS)-4-fluoro-5-[(5R)-5-methyl-5,6,7,8-tetrahydro-1H-benzo[f]indazol-4-yl]-2-{[(7aS)-2-(oxetan-3-ylidene)tetrahydro-1H-pyrrolizin-7a(5H)-yl]methoxy}-8a,9,12,13-tetrahydro-8H,11H-7,10-dioxa-1,3,6,13a-tetraazanaphtho[1,8-ab]heptalene]					3 nM	2 nM	4 nM	4 nM	14 nM	11 nM	10 nM	> 10000 nM	> 10000 nM
COC/C=C1\CN2CCC[C@@]2(COc2nc3c4c(nc(-c5c(C6CC6)c(Cl)cc6[nH]ncc56)c(F)c4n2)OC[C@@H]2COCCCN32)C1 [Example 28, (8aS)-5-(6-chloro-5-cyclopropyl-1H-indazol-4-yl)-4-fluoro-2-{[(2Z,7aS)-2-(2-methoxyethylidene)tetrahydro-1H-pyrrolizin-7a(5H)-yl]methoxy}-8a,9,12,13-tetrahydro-8H,11H-7,10-dioxa-1,3,6,13a-tetraazanaphtho[1,8-ab]heptalene]					3 nM	1 nM	2 nM	2 nM	19 nM	26 nM	4 nM	> 10000 nM	> 10000 nM
C=C1CN2CCC[C@@]2(COc2nc3c4c(nc(-c5c(C6CC6)c(Cl)cc6[nH]nc(Cl)c56)c(F)c4n2)OC[C@@H]2COCCCN32)C1 [Example 46, (8aS)-5-(3,6-dichloro-5-cyclopropyl-1H-indazol-4-yl)-4-fluoro-2-{[(7aS)-2-methylidenetetrahydro-1H-pyrrolizin-7a(5H)-yl]methoxy}-8a,9,12,13-tetrahydro-8H,11H-7,10-dioxa-1,3,6,13a-tetraazanaphtho[1,8-ab]heptalene]					4 nM	3 nM	3 nM	4 nM	15 nM	45 nM	5 nM	> 10000 nM	> 10000 nM
C=C1CN2CCC[C@@]2(COc2nc3c4c(nc(-c5c(C6CC6)c(Cl)cc6[nH]ncc56)c(F)c4n2)OC[C@@H]2CCCCN32)C1 [Example 21, (8aS)-5-(6-chloro-5-cyclopropyl-1H-indazol-4-yl)-4-fluoro-2-{[(7aS)-2-methylidenetetrahydro-1H-pyrrolizin-7a(5H)-yl]methoxy}-8,8a,9,10,11,12-hexahydro-7-oxa-1,3,6,12a-tetraazabenzo[4,5]cyclohepta[1,2,3-de]naphthalene]					31 nM	21 nM	14 nM	15 nM	381 nM	268 nM	8 nM	> 10000 nM	> 10000 nM
C=C1CN2CCC[C@@]2(COc2nc3c4c(nc(-c5c(C(C)C)c(Cl)cc6[nH]ncc56)c(F)c4n2)OC[C@@H]2COCCCN32)C1 [Example 24, (8aS)-5-[6-chloro-5-(propan-2-yl)-1H-indazol-4-yl]-4-fluoro-2-{[(7aS)-2-methylidenetetrahydro-1H-pyrrolizin-7a(5H)-yl]methoxy}-8a,9,12,13-tetrahydro-8H,11H-7,10-dioxa-1,3,6,13a-tetraazanaphtho[1,8-ab]heptalene]					7 nM	5 nM	4 nM	5 nM	45 nM	18 nM	6 nM	> 10000 nM	> 10000 nM
